From patent EP4707277A1, “NOVEL HETEROCYCLIC AMINE DERIVATIVES AND PHARMACEUTICAL COMPOSITION COMPRISING SAME” (Daewoong Pharmaceutical Co., Ltd., priority 2023, dated 2024)
Where two headings read alike, the source gives them in different places.

Legend:
BTK = biological target: T1, BTK (Homo sapiens, UniProt Q06187); experiment: Inhibitory activity against BTK, ADP-Glo Kinase system (Promega); type: biochemical
T1 construct: purchased Signalchem B10-10H
Outline: (§1)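 IC50 values were fitted from kinase reactions run for 1 h at 30°C with either 1 mM ATP or ATP at Km (10 µM for BTK, 25 µM for ITK). Reactions used 0.2 µg/µl poly(Glu4,Tyr1), recombinant human enzyme (BTK 10 ng, ITK 4 ng per reaction) in Tris pH 7.5 Mn/Mg buffer with 1% DMSO. ADP formed was read by ADP-Glo luminescence.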

ITK = biological target: T2, ITK (Homo sapiens, UniProt Q08881); experiment: Inhibitory activity against ITK, ADP-Glo Kinase system (Promega); type: biochemical
T2 construct: purchased Signalchem I13-11G-10
T2 sequence (Q08881 1-620): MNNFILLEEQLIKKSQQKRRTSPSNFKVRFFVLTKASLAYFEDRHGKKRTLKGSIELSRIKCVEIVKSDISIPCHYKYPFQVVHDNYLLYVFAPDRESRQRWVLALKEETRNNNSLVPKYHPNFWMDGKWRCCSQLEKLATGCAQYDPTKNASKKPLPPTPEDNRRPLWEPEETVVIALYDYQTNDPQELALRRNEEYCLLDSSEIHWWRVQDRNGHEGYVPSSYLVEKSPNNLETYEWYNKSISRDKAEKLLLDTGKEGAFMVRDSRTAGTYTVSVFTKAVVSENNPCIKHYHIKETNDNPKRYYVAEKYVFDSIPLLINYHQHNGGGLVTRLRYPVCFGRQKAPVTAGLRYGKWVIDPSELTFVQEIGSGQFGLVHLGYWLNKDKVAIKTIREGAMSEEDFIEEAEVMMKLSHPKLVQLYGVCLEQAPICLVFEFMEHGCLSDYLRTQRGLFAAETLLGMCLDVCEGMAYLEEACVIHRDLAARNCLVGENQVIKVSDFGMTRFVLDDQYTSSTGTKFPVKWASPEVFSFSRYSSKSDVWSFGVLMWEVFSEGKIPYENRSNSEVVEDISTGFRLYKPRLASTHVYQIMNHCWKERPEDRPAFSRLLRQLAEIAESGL
Outline: as §1

[1] = 1mM ATP, read-out: BTK IC50(nM) 1mM ATP
[2] = 1mM ATP, read-out: ITK IC50(nM) 1mM ATP
[3] = Km ATP (BTK: 10 uM), read-out: BTK IC50(nM) Km ATP
[4] = Km ATP (ITK: 25uM), read-out: ITK IC50(nM) Km ATP

T1 sequence (Q06187 whole entry): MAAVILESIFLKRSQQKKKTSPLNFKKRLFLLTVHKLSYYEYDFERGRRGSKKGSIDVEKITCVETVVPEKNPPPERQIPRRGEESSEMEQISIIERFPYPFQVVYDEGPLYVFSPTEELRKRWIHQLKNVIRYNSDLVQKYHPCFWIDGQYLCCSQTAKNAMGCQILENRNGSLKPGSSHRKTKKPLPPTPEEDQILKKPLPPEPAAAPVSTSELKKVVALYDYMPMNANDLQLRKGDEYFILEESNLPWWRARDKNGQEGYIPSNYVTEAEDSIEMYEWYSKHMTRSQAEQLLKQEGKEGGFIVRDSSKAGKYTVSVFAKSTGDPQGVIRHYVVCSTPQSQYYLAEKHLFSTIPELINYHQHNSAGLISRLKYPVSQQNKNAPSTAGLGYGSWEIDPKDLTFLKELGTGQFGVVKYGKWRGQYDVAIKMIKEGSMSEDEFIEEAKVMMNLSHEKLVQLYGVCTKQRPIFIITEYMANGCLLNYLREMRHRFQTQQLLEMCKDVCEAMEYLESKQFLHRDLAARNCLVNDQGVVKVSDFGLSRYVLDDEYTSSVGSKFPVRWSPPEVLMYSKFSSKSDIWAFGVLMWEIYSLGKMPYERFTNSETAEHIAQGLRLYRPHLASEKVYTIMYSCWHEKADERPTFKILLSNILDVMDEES

Structure (SMILES) | IC50 (BTK; [1]) [nM] | IC50 (ITK; [2]) [nM] | IC50 (BTK; [3]) [nM] | IC50 (ITK; [4]) [nM]
C=CS(=O)(=O)N1C[C@H](F)[C@H](Oc2nc(Nc3ncc(C)s3)cc3c2ccn3CC(C)C)C1 [Example 228, N-(4-(((3R,4S)-4-fluoro-1-(vinylsulfonyl)pyrrolidin-3-yl)oxy)-1-isobutyl-1H-pyrrolo[3,2-c]pyridin-6-yl)-5-methylthiazol-2-amine] | ≤ 20 | ≤ 20 |  | 
C=CC(=O)N1CCC12CC(Oc1nc(Nc3ncc(C)s3)cc3c1ccn3C)C2 (stereo not shown) [Example 136, 1-(6-((1-methyl-6-((5-methylthiazol-2-yl)amino)-1H-pyrrolo[3,2-c]pyridin-4-yl)oxy)-1-azaspiro[3.3]heptan-1-yl)prop-2-en-1-one] | ≤ 20 | ≤ 20 |  | 
C=CC(=O)N1CC[C@H](Oc2nc(Nc3cc(F)ccc3C)cc3c2ccn3C)C1 [Example 138, (S)-1-(3-((6-((5-fluoro-2-methylphenyl)amino)-1-methyl-1H-pyrrolo[3,2-c]pyridin-4-yl)oxy)pyrrolidin-1-yl)prop-2-en-1-one] | > 500 | > 500 |  | 
C=CC(=O)N1CC[C@H](Oc2nc(Nc3nccc(OC)n3)cc3c2ccn3C(C)C)C1 [Example 183, (S)-1-(3-((1-isopropyl-6-((4-methoxypyrimidin-2-yl)amino)-1H-pyrrolo[3,2-c]pyridin-4-yl)oxy)pyrrolidin-1-yl)prop-2-en-1-one] | > 500 | > 500 |  | 
C=CC(=O)N1CC=C(c2nc(Nc3ncc(C)s3)cc3c2ccn3CC2CCCC2)CC1 [Example 10, 1-(4-(1-(cyclopentylmethyl)-6-((5-methylthiazol-2-yl)amino)-1H-pyrrolo[3,2-c]pyridin-4-yl)-3,6-dihydropyridin-1(2H)-yl)prop-2-en-1-one] |  |  | ≤ 20 | 20 to 100
C=CC(=O)N1CC[C@@H](Oc2nc(Nc3ncc(C)s3)cc3c2ccn3C2CCCC2)C1 [Example 143, (R)-1-(3-((1-cyclopentyl-6-((5-methylthiazol-2-yl)amino)-1H-pyrrolo[3,2-c]pyridin-4-yl)oxy)pyrrolidin-1-yl)prop-2-en-1-one] | > 500 | > 500 |  | 
C=CC(=O)N1CC[C@H](Oc2nc(Nc3nccnc3OC)cc3c2ccn3C(C)C)C1 [Example 184, (S)-1-(3-((1-isopropyl-6-((3-methoxypyrazin-2-yl)amino)-1H-pyrrolo[3,2-c]pyridin-4-yl)oxy)pyrrolidin-1-yl)prop-2-en-1-one] | > 500 | > 500 |  | 
C=CC(=O)N1CC(Oc2nc(Nc3ncc(C)s3)cc3c2ccn3C2CCCC2)C1 [Example 142, 1-(3-((1-cyclopentyl-6-((5-methylthiazol-2-yl)amino)-1H-pyrrolo[3,2-c]pyridin-4-yl)oxy)azetidin-1-yl)prop-2-en-1-one] | ≤ 20 | ≤ 20 |  | 
C=CC(=O)N1CC[C@H](Oc2nc(Nc3ncc(C)s3)cc3c2ccn3CC(F)F)C1 [Example 206, (S)-1-(3-((1-(2,2-difluoroethyl)-6-((5-methylthiazol-2-yl)amino)-1H-pyrrolo[3,2-c]pyridin-4-yl)oxy)pyrrolidin-1-yl)prop-2-en-1-one] | ≤ 20 | ≤ 20 |  | 
C=CC(=O)N1CC=C(c2nc(Nc3cc(OC)ncn3)cc3c2ccn3C(C)C)CC1 [Example 46, 1-(4-(1-isopropyl-6-((6-methoxypyrimidin-4-yl)amino)-1H-pyrrolo[3,2-c]pyridin-4-yl)-3,6-dihydropyridin-1(2H)-yl)prop-2-en-1-one] | ≤ 20 | 100 to 500 |  | 
C=CC(=O)N1C[C@@H](Oc2nc(Nc3ncc(C)s3)cc3c2ccn3CC2CC2)C[C@@H]1C [Example 180, 1-((2S,4S)-4-((1-(cyclopropylmethyl)-6-((5-methylthiazol-2-yl)amino)-1H-pyrrolo[3,2-c]pyridin-4-yl)oxy)-2-methylpyrrolidin-1-yl)prop-2-en-1-one] | ≤ 20 | ≤ 20 |  | 
C=CC(=O)N1C[C@H](Oc2nc(Nc3ncc(C)s3)cc3c2ccn3CC(C)C)[C@@H](F)C1 [Example 134, 1-((3S,4S)-3-fluoro-4-((1-isobutyl-6-((5-methylthiazol-2-yl)amino)-1H-pyrrolo[3,2-c]pyridin-4-yl)oxy)pyrrolidin-1-yl)prop-2-en-1-one] | > 500 | > 500 |  | 
C=CC(=O)N1C[C@@H](F)[C@H](Oc2nc(Nc3ncc(C)s3)cc3c2ccn3CCC(C)C)C1 [Example 115, 1-((3R,4R)-3-fluoro-4-((1-isopentyl-6-((5-methylthiazol-2-yl)amino)-1H-pyrrolo[3,2-c]pyridin-4-yl)oxy)pyrrolidin-1-yl)prop-2-en-1-one] |  |  | ≤ 20 | ≤ 20
C=CC(=O)Nc1ccc(F)c(-c2nc(Nc3ncc(C)s3)cc3c2ccn3C(C)C)c1 [Example 59, N-(4-fluoro-3-(1-isopropyl-6-((5-methylthiazol-2-yl)amino)-1H-pyrrolo[3,2-c]pyridin-4-yl)phenyl)acrylamide] | ≤ 20 | ≤ 20 |  | 
C=CC(=O)N1C2C=C(c3nc(Nc4ncc(C)s4)cc4c3ccn4CC(F)F)CC1CC2 (stereo not shown) [Example 34, 1-(3-(1-(2,2-difluoroethyl)-6-((5-methylthiazol-2-yl)amino)-1H-pyrrolo[3,2-c]pyridin-4-yl)-8-azabicyclo[3.2.1]oct-2-en-8-yl)prop-2-en-1-one] | ≤ 20 | 20 to 100 | ≤ 20 | ≤ 20
C=CC(=O)Nc1cc(-c2nc(Nc3ncc(C)s3)cc3c2ccn3C(C)C)c(F)cc1F [Example 60, N-(2,4-difluoro-5-(1-isopropyl-6-((5-methzylthiazol-2-yl)amino)-1H-pyrrolo[3,2-c]pyridin-4-yl)phenyl)acrylamide] | ≤ 20 | ≤ 20 | ≤ 20 | ≤ 20
C=CC(=O)N1C[C@H](F)[C@H](Oc2nc(Nc3ncc(C)s3)cc3c2ccn3CC)C1 [Example 152, 1-((3R,4S)-3-((1-ethyl-6-((5-methylthiazol-2-yl)amino)-1H-pyrrolo[3,2-c]pyridin-4-yl)oxy)-4-fluoropyrrolidin-1-yl)prop-2-en-1-one] | ≤ 20 | ≤ 20 |  | 
C=CC(=O)N1CC=C(c2nc(Nc3ncc(C)s3)cc3c2ccn3CC2CCCCC2)CC1 [Example 9, 1-(4-(1-(cyclohexylmethyl)-6-((5-methylthiazol-2-yl)amino)-1H-pyrrolo[3,2-c]pyridin-4-yl)-3,6-dihydropyridin-1(2H)-yl)prop-2-en-1-one] |  |  | ≤ 20 | ≤ 20
C=CC(=O)N1CCC[C@H]1COc1nc(Nc2ncc(C)s2)cc2c1ccn2CC(C)C [Example 85, (S)-1-(2-(((1-isobutyl-6-((5-methylthiazol-2-yl)amino)-1H-pyrrolo[3,2-c]pyridin-4-yl)oxy)methyl)pyrrolidin-1-yl)prop-2-en-1-one] | 20 to 100 | > 500 |  | 
C=CC(=O)N1CC=C(c2nc(Nc3ncc(C)s3)cc3c2ccn3[C@H](C)C(F)(F)F)CC1 [Example 24, (R)-1-(4-(6-((5-methylthiazol-2-yl)amino)-1-(1,1,1-trifluoropropan-2-yl)-1H-pyrrolo[3,2-c]pyridin-4-yl)-3,6-dihydropyridin-1(2H)-yl)prop-2-en-1-one] | ≤ 20 | 20 to 100 |  | 
C=CC(=O)N1CC[C@@H](Oc2nc(Nc3ncc(C)s3)cc3c2ccn3C)C1 [Example 156, (R)-1-(3-((1-methyl-6-((5-methylthiazol-2-yl)amino)-1H-pyrrolo[3,2-c]pyridin-4-yl)oxy)pyrrolidin-1-yl)prop-2-en-1-one] | > 500 | > 500 |  | 
C=CC(=O)N1C[C@H](F)[C@H](Oc2nc(Nc3ncc(C)s3)cc3c2ccn3CC2CC2)C1 [Example 107, 1-((3R,4S)-3-((1-(cyclopropylmethyl)-6-((5-methylthiazol-2-yl)amino)-1H-pyrrolo[3,2-c]pyridin-4-yl)oxy)-4-fluoropyrrolidin-1-yl)prop-2-en-1-one] | ≤ 20 | ≤ 20 |  | 
C=CC(=O)N1C[C@@H](Oc2nc(Nc3ncc(C)s3)cc3c2ccn3CC(F)(F)F)C[C@H]1C [Example 212, 1-((2R,4S)-2-methyl-4-((6-((5-methylthiazol-2-yl)amino)-1-(2,2,2-trifluoroethyl)-1H-pyrrolo[3,2-c]pyridin-4-yl)oxy)pyrrolidin-1-yl)prop-2-en-1-one] | ≤ 20 | ≤ 20 |  | 
CC#CC(=O)N1C[C@H](F)[C@H](Oc2nc(Nc3ncc(C)s3)cc3c2ccn3CC(C)C)C1 [Example 230, 1-((3S,4R)-3-fluoro-4-((1-isobutyl-6-((5-methylthiazol-2-yl)amino)-1H-pyrrolo[3,2-c]pyridin-4-yl)oxy)pyrrolidin-1-yl)but-2-yn-1-one] | > 500 | > 500 |  | 
